From the supplement of paper PMC10307832

Tests used:
Test in all cases: relative viability (nuclei count vs DMSO), 5 days (fraction); higher = more cells survive
XMD8-85 + Lapatinib = compound: CN1CCN(CC1)C2=CC(=C(C=C2)NC3=NC=C4C(=N3)N(C5=CC=CC=C5C(=O)N4C)C)OC [XMD8-85] + CS(=O)(=O)CCNCc1ccc(-c2ccc3ncnc(Nc4ccc(OCc5cccc(F)c5)c(Cl)c4)c3c2)o1 [Lapatinib] (partner 2 µM)
How it was run: (§1)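 Dosing by pin tool came one day after lung cancer cell lines were seeded in 1536-well plates, using either one drug or a fixed anchor-drug dose plus five library-drug doses (not always all listed) in √10 steps. After 5 days, nuclei were counted on 4× images. Relative viability is treated-well nuclei count divided by vehicle-well nuclei count, and values are medians of duplicate plates.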

XMD8-85 + Pictilisib = compound: CN1CCN(CC1)C2=CC(=C(C=C2)NC3=NC=C4C(=N3)N(C5=CC=CC=C5C(=O)N4C)C)OC [XMD8-85] + CS(=O)(=O)N1CCN(Cc2cc3nc(-c4cccc5[nH]ncc45)nc(N4CCOCC4)c3s2)CC1 [Pictilisib] (partner 1 µM)
How it was run: as §1

4EGI-1 + Lapatinib = compound: O=C(O)C(Cc1ccccc1[N+](=O)[O-])=NNc1nc(-c2ccc(Cl)c(Cl)c2)cs1 (mixture of isomers) [4EGI-1] + CS(=O)(=O)CCNCc1ccc(-c2ccc3ncnc(Nc4ccc(OCc5cccc(F)c5)c(Cl)c4)c3c2)o1 [Lapatinib] (partner 2 µM)
How it was run: as §1

4EGI-1 + Alpelisib = compound: O=C(O)C(Cc1ccccc1[N+](=O)[O-])=NNc1nc(-c2ccc(Cl)c(Cl)c2)cs1 (mixture of isomers) [4EGI-1] + Cc1nc(NC(=O)N2CCC[C@H]2C(N)=O)sc1-c1ccnc(C(C)(C)C(F)(F)F)c1 [Alpelisib] (partner 2 µM)
How it was run: as §1

| Cell Line | relative viability (XMD8-85 + Lapatinib; first compound 0.08 µM) | relative viability (XMD8-85 + Lapatinib; first compound 0.253 µM) | relative viability (XMD8-85 + Lapatinib; first compound 0.8 µM) | relative viability (XMD8-85 + Lapatinib; first compound 2.53 µM) | relative viability (XMD8-85 + Lapatinib; first compound 8 µM) | relative viability (XMD8-85 + Pictilisib; first compound 0.08 µM) | relative viability (XMD8-85 + Pictilisib; first compound 0.253 µM) | relative viability (XMD8-85 + Pictilisib; first compound 0.8 µM) | relative viability (XMD8-85 + Pictilisib; first compound 2.53 µM) | relative viability (XMD8-85 + Pictilisib; first compound 8 µM) | relative viability (4EGI-1 + Lapatinib; first compound 0.5 µM) | relative viability (4EGI-1 + Lapatinib; first compound 1.581 µM) | relative viability (4EGI-1 + Lapatinib; first compound 5 µM) | relative viability (4EGI-1 + Lapatinib; first compound 15.81 µM) | relative viability (4EGI-1 + Lapatinib; first compound 50 µM) | relative viability (4EGI-1 + Alpelisib; first compound 0.5 µM) | relative viability (4EGI-1 + Alpelisib; first compound 1.581 µM) | relative viability (4EGI-1 + Alpelisib; first compound 5 µM) | relative viability (4EGI-1 + Alpelisib; first compound 15.81 µM) | relative viability (4EGI-1 + Alpelisib; first compound 50 µM) |
| --- | --- | --- | --- | --- | --- | --- | --- | --- | --- | --- | --- | --- | --- | --- | --- | --- | --- | --- | --- | --- |
| LC-2-ad | 1.03 | 0.976 | 0.984 | 1 | 0.702 | 0.433 | 0.497 | 0.543 | 0.483 | 0.276 | 0.988 | 0.89 | 0.942 | 0.228 | 0.175 | 0.865 | 0.758 | 0.858 | 0.822 | 0.137 |
| LCLC-97TM1 | 0.703 | 0.931 | 0.859 | 1.02 | 1.15 | 0.181 | 0.22 | 0.248 | 0.173 | 0.177 | 1.28 |  | 1.16 | 0.801 | 0.274 | 0.213 |  | 0.239 | 0.236 | 0.211 |
| NCI-H460 | 0.551 | 0.84 | 1.27 | 1.29 | 0.406 | 0.341 | 0.356 | 0.405 | 0.333 | 0.156 | 1.09 |  | 0.975 | 0.131 | 0.0327 | 0.511 |  | 0.493 | 0.197 | 0.0546 |
| UMC-11 | 0.835 | 0.853 | 1.17 | 0.976 | 0.724 | 0.696 | 0.757 | 0.922 | 0.796 | 0.513 | 1.19 | 0.825 | 1.31 | 1.17 | 0.669 | 1.06 | 1.03 | 1.12 | 0.898 | 0.306 |
| HCC-827 | 0.185 | 0.192 | 0.175 | 0.195 | 0.193 | 1.16 | 1.03 | 0.902 | 1.11 | 1.15 | 0.197 | 0.201 | 0.15 |  | 0.168 | 1.07 | 0.957 | 0.897 |  | 0.85 |
| 201T | 1.07 | 1.01 | 1.02 | 1 | 0.828 | 0.635 | 0.677 | 0.723 | 0.746 | 0.556 | 1.04 | 0.986 | 1.04 | 1.02 | 0.659 | 1.03 | 0.997 | 1.09 | 1.03 | 0.97 |
| NCI-H1755 | 0.943 | 1.1 | 1.05 | 1.17 | 0.996 | 0.369 | 0.426 | 0.448 | 0.552 | 0.357 | 1.06 | 1.01 | 0.967 | 0.883 | 0.284 | 0.956 | 1.03 | 0.88 | 0.851 | 0.445 |
| NCI-H1944 | 0.784 | 0.733 | 0.897 | 1.02 | 0.702 | 0.326 | 0.332 | 0.351 | 0.333 | 0.307 | 0.816 |  | 0.776 | 0.745 | 0.456 | 0.86 |  | 0.796 | 0.642 | 0.672 |
| NCI-H1563 | 1.04 | 0.87 | 1.01 | 0.822 | 0.7 | 0.703 | 0.652 | 0.646 | 0.663 | 0.62 | 1.11 | 0.809 | 0.994 | 0.393 | 0.536 | 0.998 | 0.884 | 0.983 | 0.906 | 0.697 |
| NCI-H1666 | 0.58 | 0.709 | 0.92 | 0.816 | 0.499 | 0.522 | 0.375 | 0.391 | 0.312 | 0.44 | 0.743 | 0.616 | 0.653 | 0.526 | 0.229 | 1.08 | 1.07 | 1.15 | 0.403 | 0.212 |
| LCLC-103H |  |  |  |  |  | 0.606 | 0.615 | 0.66 | 0.598 | 0.462 |  |  |  |  |  | 1.01 | 0.866 | 0.866 | 0.879 | 0.879 |
| NCI-H1734 | 1.05 | 0.977 | 1.03 | 1.17 | 0.987 | 0.45 | 0.397 | 0.477 | 0.502 | 0.475 | 1.15 | 0.939 | 1.15 | 0.903 | 0.393 | 0.686 | 0.599 | 0.753 | 0.719 | 0.491 |
| HOP-62 | 1.11 | 0.904 | 0.978 | 1.13 | 0.797 | 0.734 | 0.723 | 0.858 | 0.559 | 0.232 | 1.06 |  | 1.08 | 0.961 | 0.362 | 1.13 |  | 1.12 | 1.13 | 0.745 |
| HCC-15 | 0.851 | 0.879 | 0.863 | 0.948 | 0.747 | 0.684 | 0.691 | 0.76 | 0.728 | 0.616 | 0.949 | 0.914 | 0.871 | 0.8 | 0.423 | 0.923 | 0.886 | 0.968 | 0.809 | 0.519 |
| NCI-H2405 | 1.04 | 1.18 | 1.13 | 1.1 | 0.636 | 0.388 | 0.528 | 0.402 | 0.373 | 0.303 | 1.27 | 0.801 | 1.23 | 1.09 | 0.685 | 1.16 | 0.664 | 0.95 | 0.918 | 0.526 |
| NCI-H1793 | 0.845 | 0.826 | 0.857 | 0.781 | 0.814 | 0.389 | 0.248 | 0.44 | 0.405 | 0.38 | 0.637 | 0.886 | 0.556 | 0.814 | 0.402 | 0.868 | 0.883 | 0.679 | 0.668 | 0.577 |
| NCI-H1703 |  | 1.22 | 1.25 | 1.26 | 0.841 | 0.236 | 0.234 | 0.269 | 0.229 | 0.196 | 1.46 | 0.955 | 1.17 | 1.22 | 0.437 | 0.414 | 0.305 | 0.387 | 0.338 | 0.381 |
